Results on six molecules are retold here after patent US8471061B2 (priority 2004, dated 2013).

Data set [1] relates to Salmonella typhimurium TA 100. The data set is described as follows: Back mutation test, TA100. In kind it is cell-based. On the procedure: (§1) A test was carried out in accordance with the “Standard of Mutagenicity Tests Using Microorganisms” (Ministry of Labor Notification No. 77, 1988) (partial revision by Ministry of Labor Notification No. 67, 1997) and “Regarding the Tests Concerning Novel Chemical Substances and the like” (dated Nov. 21, 2003: Yaku-Shoku-Hatsu No. 1121002, 2003.11.13 Sei-Kyoku, No. 2, Kan-Ho-Ki-Hatsu No. 031121002). To 0.1 ml of a solution prepared by dissolving 5% (w/v) of 5-aminolevulinic acid phosphate in distilled water (Wako Pure Chemical Industries), 0.5 ml of 0.1 M sodium-phosphate buffer (pH 7.4) (0.5 ml S9 mix in the case of metabolism activation test) was added, and 0.1 ml of each test strain suspension (5 strains of histidine-less Salmonella typhimurium TA 100, TA 98, TA 1535 and TA 1537 and tryptophan-less Escherichia coli WP2 uvrA were used (Japan Bioassay Research Center)) was further added thereto, followed by pre-incubation at 37° C. for 20 minutes while shaking. After completion of the culturing, 2.0 ml of top agar kept at 45° C. in advance was added thereto and layered on a minimum glucose agar plate medium. In this case, 2 plates were arranged for each dosage. However, 3 plates were arranged for a solvent control (negative control). […] In the measurement, an inner area of about 80 mm in diameter of a plate of 86 mm in diameter (84 mm in inner diameter) was measured using an automatic colony analyzer (CA-11: manufactured by System Science), and calculated by carrying out area correction and counting loss correction using a personal computer. However, since reliability of the automatic colony analyzer is reduced when the number of colonies is 1,500 or more, 5 points in the plate were manually measured under the stereoscopic microscope to carry out area correction of the average value. A dosage setting test was carried out on 7 dosages diluted at a common ratio of 4, using a dosage of 5,000 μg/plate as the maximum which is the maximum dosage defined by the guideline. […] Growth inhibition of the strains by this substance to be tested was not found. […] Thus, this test was carried out by setting 5 dosages diluted at a common ratio of 2, using a dosage of 5,000 μg/plate as the maximum which is the maximum dosage defined by the guideline.

Data set [2] deals with Salmonella typhimurium TA 98. Description: Back mutation test, TA98. In kind it is cell-based. On the procedure:
as §1

In data set [3] the test system is Escherichia coli WP2 uvrA. Description: Back mutation test, WP2uvrA. Format: cell-based. On the procedure: as §1
Another data set concerns radish. The data set is described as follows: Plant activating effect, foliar application, radish. Format: in vivo. The conditions noted are these: 21 days, 12 seeds. On the procedure:
After 600 g of upland soil was packed in a porcelain pot of 12 cm in inner diameter, 12 grains of radish seeds were sowed therein, covered with 5 mm in depth of the soil and allowed to grow in a green house. Foliar application treatment was carried out once a day using the following application liquids. Conditions of the leaves 21 days thereafter were observed.

Data set [4] deals with spiderwort Commelina communis. The data set is described as follows: Plant activating effect, foliar application, spiderwort. Format: in vivo. The conditions noted are these: 21 days, 12 plants. The protocol:
A total of 12 pots, in which 600 g of volcanic ash soil was packed in a porcelain pot of 12 cm in inner diameter, and 1 plant of a spiderwort Commelina communis grown to a height of 15 cm was planted in 1 pot, were prepared and placed under a constant temperature environment of 20° C., and foliar application treatment was carried out once a day using the following application liquids. Conditions of the leaves 21 days thereafter were observed.

Data set [5] relates to Salmonella typhimurium TA 1535. The conditions noted are these: TA1535. The protocol: (§2) A test was carried out in accordance with the “Standard of Mutagenicity Tests Using Microorganisms” (Ministry of Labor Notification No. 77, 1988) (partial revision by Ministry of Labor Notification No. 67, 1997) and “Regarding the Tests Concerning Novel Chemical Substances and the like” (dated Nov. 21, 2003: Yaku-Shoku-Hatsu No. 1121002, 2003.11.13 Sei-Kyoku, No. 2, Kan-Ho-Ki-Hatsu No. 031121002). To 0.1 ml of a solution prepared by dissolving 5% (w/v) of 5-aminolevulinic acid phosphate in distilled water (Wako Pure Chemical Industries), 0.5 ml of 0.1 M sodium-phosphate buffer (pH 7.4) (0.5 ml S9 mix in the case of metabolism activation test) was added, and 0.1 ml of each test strain suspension (5 strains of histidine-less Salmonella typhimurium TA 100, TA 98, TA 1535 and TA 1537 and tryptophan-less Escherichia coli WP2 uvrA were used (Japan Bioassay Research Center)) was further added thereto, followed by pre-incubation at 37° C. for 20 minutes while shaking. After completion of the culturing, 2.0 ml of top agar kept at 45° C. in advance was added thereto and layered on a minimum glucose agar plate medium. In this case, 2 plates were arranged for each dosage. However, 3 plates were arranged for a solvent control (negative control). […] In the measurement, an inner area of about 80 mm in diameter of a plate of 86 mm in diameter (84 mm in inner diameter) was measured using an automatic colony analyzer (CA-11: manufactured by System Science), and calculated by carrying out area correction and counting loss correction using a personal computer. However, since reliability of the automatic colony analyzer is reduced when the number of colonies is 1,500 or more, 5 points in the plate were manually measured under the stereoscopic microscope to carry out area correction of the average value. A dosage setting test was carried out on 7 dosages diluted at a common ratio of 4, using a dosage of 5,000 μg/plate as the maximum which is the maximum dosage defined by the guideline.

In data set [6] the test system is Salmonella typhimurium TA 1537. Particulars: TA1537; for Positive control, number of back mutation, single plates: dihydrochloride. On the procedure: as §2
Setting [7] is: S9 Mix not required, 0.01 μg/plate.
Where [8] appears, read: S9 Mix not required, 0.1 μg/plate.
[9] abbreviates: S9 Mix not required, 0.5 μg/plate.
[10] abbreviates: S9 Mix not required, 1.0 μg/plate.

Molecules are shown by their SMILES. Values joined by “and” are separate entries in the source; they are usually repeats but may differ in a detail not shown here. Identical values can stand only once. Counter-ions that a name gives are not always drawn. Like-named read-outs stand apart in the source and are kept apart here.

Consider `NC(=O)C(=Cc1ccc([N+](=O)[O-])o1)c1ccco1` [AF-2, 2-(2-furyl)-3-(5-nitro-2-furyl)acrylamide, reference compound], for which the “Positive control, number of back mutation, mean (in parentheses)” value (from here on “Positive control, number … (in parentheses)”) is given as “(572) Colonies/plate” in data set [1] (setting [7]); “(1230) Colonies/plate” in data set [1] (S9 Mix required, 1.0 μg/plate); “(568) Colonies/plate” in data set [2] (setting [8]); “(665) Colonies/plate” in data set [2] (S9 Mix required, 0.5 μg/plate); “(152) Colonies/plate” in data set [3] (setting [7]); “(1267) Colonies/plate” in data set [3] (S9 Mix required, 10.0 μg/plate). For the same molecule, the “Positive control, number of back mutation, single plates” value (from here on “Positive control … single plates”) is 564 Colonies/plate and 580 Colonies/plate in data set [1] (setting [7]); 1275 Colonies/plate and 1184 Colonies/plate in data set [1] (S9 Mix required, 1.0 μg/plate); 575 Colonies/plate and 560 Colonies/plate in data set [2] (setting [8]); 661 Colonies/plate and 668 Colonies/plate in data set [2] (S9 Mix required, 0.5 μg/plate); 155 Colonies/plate and 149 Colonies/plate in data set [3] (setting [7]); 1230 Colonies/plate and 1304 Colonies/plate in data set [3] (S9 Mix required, 10.0 μg/plate).
On to `Cc1ccc(S(=O)(=O)O)cc1` [p-toluenesulfonic acid], for which, in the data set with radish (1 ppm in tap water), the “plants judged 0: Abnormality was not found on the leaf surface” value is listed as 1 plant^ plants, the “plants judged 1: A region discolored to yellow was found on the leaf surface” value (shortened to “plants judged 1: A region discolored”) is given as 2 plants and the “plants judged 2: A necrotic region was found on the leaf surface” value stood at 9 plants. Besides, in the data set on radish (10 ppm in tap water), the “plants judged 0: Abnormality was not found on the leaf surface” value is on record as 1 plant^ plants, the “plants judged 1: A region discolored” value stood at 2 plants and the “plants judged 2: A necrotic region was found on the leaf surface” value is given as 9 plants. In the data set on radish (100 ppm in tap water), the “plants judged 0: Abnormality was not found on the leaf surface” value was found to be 0 plant^ plants, the “plants judged 1: A region discolored” value is 3 plants and the “plants judged 2: A necrotic region was found on the leaf surface” value amounted to 9 plants.
For `O=P(O)(O)O` [sodium phosphate], in data set [4] (1 ppm in tap water), the “plants judged 0: Abnormality was not found on the leaf surface” value was 4 plants, the “plants judged 1: A region discolored” value turned out to be 3 plants and the “plants judged 2: A necrotic region was found on the leaf surface” value is 5 plants. Further, in data set [4] (10 ppm in tap water), the “plants judged 0: Abnormality was not found on the leaf surface” value is given as 2 plants, the “plants judged 1: A region discolored” value is reported as 4 plants and the “plants judged 2: A necrotic region was found on the leaf surface” value is given as 6 plants. Further, in data set [4] (100 ppm in tap water), the “plants judged 0: Abnormality was not found on the leaf surface” value is listed as 3 plants, the “plants judged 1: A region discolored” value is 2 plants and the “plants judged 2: A necrotic region was found on the leaf surface” value is 7 plants.
In the case of `[N-]=[N+]=[N-]` [NaN3, sodium azide, reference compound], in data set [5] (setting [9]), the “Positive control, number … (in parentheses)” value is given as “(210) Colonies/plate”; the “Positive control … single plates” value is 203 Colonies/plate and 216 Colonies/plate. Further, in data set [5] (S9 Mix required, 2.0 μg/plate), the “Positive control, number … (in parentheses)” value was “(138) Colonies/plate”; the “Positive control … single plates” value was 137 Colonies/plate and 138 Colonies/plate.
`O=[N+]([O-])[O-].[Na+]` [sodium nitrate]: the “plants judged 0: Abnormality was not found on the leaf surface” value in the data set with radish (1 ppm in tap water), with radish (10 ppm in tap water) and in the data set on radish (100 ppm in tap water) was 2 plants throughout. Moreover, the “plants judged 1: A region discolored” value in the data set on radish (1 ppm in tap water) stood at 6 plants; in the data set on radish (10 ppm in tap water) it was 4 plants; in the data set on radish (100 ppm in tap water) it was 5 plants. Moreover, the “plants judged 2: A necrotic region was found on the leaf surface” value with radish (1 ppm in tap water) was found to be 4 plants; with radish (10 ppm in tap water) it was 6 plants; in the data set on radish (100 ppm in tap water), 5 plants.
Consider `COc1ccc2nc3cc(Cl)ccc3c(NCCCNCCCl)c2c1` [ICR-191, 6-chloro-9-[3-(2-chloroethylamine)-propylamino]-2-methoxyacridine dihydrochloride, reference compound], for which, in data set [6] (setting [10]), the “Positive control, number … (in parentheses)” value is reported as “(4001) Colonies/plate”; the “Positive control … single plates” value was 4068 Colonies/plate and 3934 Colonies/plate. In data set [6] (S9 Mix required, 2.0 μg/plate), the “Positive control, number … (in parentheses)” value is “(262) Colonies/plate”; the “Positive control … single plates” value is 257 Colonies/plate and 267 Colonies/plate.
